ChEMBL document CHEMBL1201862, “PubChem BioAssay data set” (2004)
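Step 1: Grow cells in 96-well plates. Step 2: Expose to compound for 48 hours at 5 concentrations. Step 3: Interpolate endpoints linearly; if unreached, use highest concentration. Here, GI50 denotes the concentration required for 50% inhibition of growth.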 Calls of active or inactive are those of the source. No stated cut-off is given here; in the data, active = GI50 up to about 1.1 µM and inactive = higher.

Key:
Assay in all cases: NCI-60 cell line screen, 48 h
CCRF-CEM = system: CCRF-CEM
DU-145 = system: DU-145
HL-60 = system: HL-60
IGROV-1 = system: IGROV-1
K562 = system: K562
KM12 = system: KM12
MDA-N = system: MDA-N
NCI/ADR-RES = system: NCI/ADR-RES
OVCAR-4 = system: OVCAR-4
OVCAR-8 = system: OVCAR-8
RPMI-8226 = system: RPMI-8226
SF-539 = system: SF-539
SNB-19 = system: SNB-19
SR = system: SR
TK-10 = system: TK-10
M14 = system: M14
SK-MEL-2 = system: SK-MEL-2
T47D = system: T47D
UACC-62 = system: UACC-62

Measured: GI50

CCCc1c(O)nc2ccccc2c1O
inactive: CCRF-CEM > 100 µM | DU-145 > 100 µM | HL-60 > 100 µM | IGROV-1 > 100 µM | K562 > 100 µM | KM12 > 100 µM | MDA-N > 100 µM | NCI/ADR-RES > 100 µM | OVCAR-4 > 100 µM | OVCAR-8 > 100 µM | RPMI-8226 > 100 µM | SF-539 > 100 µM | SNB-19 > 100 µM | SR > 100 µM | TK-10 > 100 µM

NC(C(=O)OC(=O)c1ccccc1)C(=O)OC(=O)c1ccccc1
inactive: CCRF-CEM > 100 µM | DU-145 > 100 µM | K562 > 100 µM | KM12 > 100 µM | M14 > 100 µM | MDA-N > 10 µM | NCI/ADR-RES > 100 µM | OVCAR-4 > 100 µM | OVCAR-8 > 100 µM | RPMI-8226 > 100 µM | SF-539 > 100 µM | SK-MEL-2 > 100 µM | SNB-19 > 100 µM | T47D > 100 µM | TK-10 > 100 µM

Cn1c(=O)cc(N2CCCC2)[nH]c1=O
inactive: CCRF-CEM > 100 µM | DU-145 > 100 µM | HL-60 > 100 µM | IGROV-1 > 100 µM | K562 > 100 µM | KM12 > 100 µM | M14 > 100 µM | NCI/ADR-RES > 100 µM | OVCAR-4 > 100 µM | OVCAR-8 > 100 µM | RPMI-8226 > 100 µM | SF-539 > 100 µM | SK-MEL-2 > 100 µM | SNB-19 > 100 µM | SR > 100 µM | TK-10 > 100 µM

O=C1CCCC2=C1CC1=C(CCCC1=O)N2c1cccc([N+](=O)[O-])c1
inactive: CCRF-CEM > 100 µM | HL-60 > 100 µM | IGROV-1 > 100 µM | K562 > 100 µM | KM12 > 100 µM | M14 > 100 µM | NCI/ADR-RES > 100 µM | OVCAR-4 > 100 µM | OVCAR-8 > 100 µM | RPMI-8226 > 100 µM | SF-539 > 100 µM | SNB-19 > 100 µM | SR > 100 µM | TK-10 > 100 µM | UACC-62 > 100 µM

O=C1/C(=C/c2cccs2)NC(=S)N1CN1CCOCC1
inactive: CCRF-CEM > 100 µM | DU-145 > 100 µM | IGROV-1 > 100 µM | K562 > 100 µM | KM12 > 100 µM | M14 > 100 µM | MDA-N > 100 µM | NCI/ADR-RES > 100 µM | OVCAR-8 > 100 µM | RPMI-8226 > 100 µM | SK-MEL-2 > 100 µM | SNB-19 > 100 µM | SR > 100 µM | TK-10 34.1 µM | UACC-62 > 100 µM

CS(=O)(=O)c1nc(-c2cc3c(c(S(C)(=O)=O)n2)CCC3)cc2c1CCC2
inactive: CCRF-CEM > 100 µM | DU-145 > 100 µM | HL-60 > 100 µM | IGROV-1 44.3 µM | K562 > 100 µM | KM12 > 100 µM | M14 > 100 µM | MDA-N > 100 µM | NCI/ADR-RES > 100 µM | OVCAR-4 > 100 µM | OVCAR-8 74.5 µM | RPMI-8226 > 100 µM | SF-539 > 100 µM | SK-MEL-2 > 100 µM | SNB-19 67.5 µM | TK-10 > 100 µM | UACC-62 > 100 µM

OC[C@@H](O)[C@H](O)[C@@H](O)/C=N/Nc1ccc(Cl)nn1
inactive: CCRF-CEM > 100 µM | DU-145 > 100 µM | HL-60 > 100 µM | IGROV-1 > 100 µM | KM12 > 100 µM | M14 > 100 µM | MDA-N > 100 µM | NCI/ADR-RES > 100 µM | OVCAR-4 > 100 µM | OVCAR-8 > 100 µM | RPMI-8226 > 100 µM | SF-539 > 100 µM | SK-MEL-2 > 100 µM | SNB-19 > 100 µM | T47D > 100 µM | TK-10 > 100 µM | UACC-62 > 100 µM

O=c1[nH]nc(Nc2ccc(Cl)cc2)c2nnn(-c3ccc([N+](=O)[O-])cc3)c12
inactive: CCRF-CEM 7.98 µM | DU-145 12.1 µM | HL-60 98.6 µM | IGROV-1 31.6 µM | K562 6.35 µM | KM12 26.4 µM | M14 49.4 µM | NCI/ADR-RES 23.1 µM | OVCAR-4 23.8 µM | OVCAR-8 16.2 µM | RPMI-8226 10.7 µM | SF-539 17.5 µM | SK-MEL-2 24.2 µM | SNB-19 30.9 µM | SR 28.1 µM | TK-10 24.7 µM

CCC(CN(C)C)C(=O)c1ccco1 (stereo unspecified)
inactive: DU-145 > 100 µM | IGROV-1 > 100 µM | K562 > 100 µM | KM12 > 100 µM | M14 > 100 µM | NCI/ADR-RES > 100 µM | OVCAR-4 > 100 µM | OVCAR-8 > 100 µM | RPMI-8226 68.5 µM | SK-MEL-2 > 100 µM | SNB-19 > 100 µM | SR > 100 µM | T47D > 100 µM | TK-10 > 100 µM | UACC-62 > 100 µM

COP(=O)(OC)C(O)/C=C(\Cl)c1ccc(Cl)cc1 (stereo unspecified)
inactive: CCRF-CEM 21.1 µM | DU-145 > 100 µM | HL-60 32.9 µM | IGROV-1 > 100 µM | K562 43.5 µM | KM12 > 100 µM | M14 62.1 µM | NCI/ADR-RES 23.1 µM | OVCAR-4 37.2 µM | OVCAR-8 23.9 µM | RPMI-8226 25.6 µM | SF-539 > 100 µM | SK-MEL-2 > 100 µM | SNB-19 75.5 µM | SR 21.3 µM | T47D 25.3 µM | TK-10 > 100 µM | UACC-62 56 µM

O=C(O)CC(Sc1ccccc1)c1ccccc1 (stereo unspecified)
inactive: DU-145 > 100 µM | HL-60 > 100 µM | IGROV-1 > 100 µM | K562 > 100 µM | KM12 > 100 µM | M14 > 100 µM | MDA-N > 100 µM | NCI/ADR-RES > 100 µM | OVCAR-4 > 100 µM | OVCAR-8 > 100 µM | RPMI-8226 > 100 µM | SK-MEL-2 > 100 µM | SNB-19 > 100 µM | T47D > 100 µM | TK-10 > 100 µM | UACC-62 > 100 µM

O=C(Nc1ccc(Cl)cc1)NS(=O)(=O)c1coc2cc(F)ccc2c1=O
inactive: CCRF-CEM 86.3 µM | IGROV-1 > 100 µM | K562 19.7 µM | KM12 92 µM | M14 > 100 µM | MDA-N > 100 µM | NCI/ADR-RES > 100 µM | OVCAR-4 > 100 µM | OVCAR-8 > 100 µM | SF-539 87.7 µM | SK-MEL-2 52.6 µM | SNB-19 > 100 µM | SR 95.9 µM | T47D > 100 µM | TK-10 > 100 µM | UACC-62 26.2 µM

CC(=O)ONC(C(=O)C(C)(C)C)C(=O)C(C)(C)C
inactive: CCRF-CEM > 100 µM | DU-145 > 100 µM | HL-60 > 100 µM | IGROV-1 > 100 µM | K562 > 100 µM | KM12 > 100 µM | M14 > 100 µM | MDA-N > 100 µM | NCI/ADR-RES > 100 µM | OVCAR-4 > 100 µM | OVCAR-8 > 100 µM | RPMI-8226 > 100 µM | SF-539 > 100 µM | SK-MEL-2 > 100 µM | SNB-19 > 100 µM | T47D > 100 µM | TK-10 > 100 µM

CCOc1ccccc1NC(=O)C(=O)C(/C(=N/N)C(=O)OC)c1nc2ccc([N+](=O)[O-])cc2nc1O (stereo unspecified)
inactive: CCRF-CEM > 100 µM | HL-60 > 100 µM | IGROV-1 28.5 µM | K562 > 100 µM | KM12 > 100 µM | M14 > 100 µM | MDA-N > 100 µM | NCI/ADR-RES > 100 µM | OVCAR-4 > 100 µM | OVCAR-8 > 100 µM | RPMI-8226 > 100 µM | SF-539 > 100 µM | SK-MEL-2 > 100 µM | SR > 100 µM | T47D > 100 µM | TK-10 > 100 µM | UACC-62 > 100 µM

O=C1c2ccccc2C(=O)C2NC(CCCCCSSCCCCCC3=NC4C(=O)c5ccccc5C(=O)C4N3)=NC12 (stereo unspecified)
inactive: CCRF-CEM > 100 µM | DU-145 > 100 µM | HL-60 > 100 µM | IGROV-1 12.9 µM | K562 > 100 µM | KM12 80.9 µM | M14 4.57 µM | NCI/ADR-RES > 100 µM | OVCAR-4 > 100 µM | OVCAR-8 45.2 µM | RPMI-8226 > 100 µM | SF-539 24.3 µM | SK-MEL-2 > 100 µM | SR 1.48 µM | T47D > 100 µM | TK-10 68.2 µM

CCC(C)[C@H](NC(=O)N[C@H](C)c1ccccc1)C(=O)OC (stereo partly specified)
inactive: CCRF-CEM > 100 µM | DU-145 > 100 µM | HL-60 > 100 µM | IGROV-1 > 100 µM | K562 > 100 µM | KM12 > 100 µM | M14 > 100 µM | MDA-N > 100 µM | OVCAR-4 > 100 µM | OVCAR-8 > 100 µM | RPMI-8226 > 100 µM | SF-539 25.8 µM | SK-MEL-2 > 100 µM | SNB-19 > 100 µM | SR > 100 µM | TK-10 > 100 µM | UACC-62 > 100 µM

O=C(O)c1ccccc1C(=O)Nc1cc2c(cc1Br)-c1ccccc1C2=O
inactive: CCRF-CEM 45.9 µM | DU-145 64.4 µM | HL-60 92.5 µM | IGROV-1 > 100 µM | K562 > 100 µM | KM12 > 100 µM | M14 > 100 µM | MDA-N > 100 µM | NCI/ADR-RES > 100 µM | OVCAR-4 > 100 µM | OVCAR-8 > 100 µM | RPMI-8226 > 100 µM | SF-539 > 100 µM | SK-MEL-2 > 100 µM | SNB-19 > 100 µM | T47D > 100 µM | TK-10 > 100 µM | UACC-62 > 100 µM
